Test results from publication PMC12691742, “Anti-Cancer Outcome of Glucocorticoid Receptor Transrepression by Synephrine Derivatives in Hematological Malignancies” (International Journal of Molecular Sciences, 2025).

Test system: NF-kB activity in K562 and Granta cells
Assay: NF-kB.Luc reporter assay, positive control
Format: cell-based
Conditions: TPA 5 ng/mL or 10 ng/mL (method), 5 h
Method: We analyzed GR TR function using an NF-kB.Luc reporter assay with the irritating inflammatory agent phorbol 13-acetate 12-myristate (TPA) as an inducer of NF-kB signaling and positive control.
Figure 4 Effects of synephrine derivatives on GR transrepression in Granta lymphoma and K562 leukemia cells. (A) K562 and Granta cells stably infected with the lentiviruses bearing the NF-kB luciferase reporter. Cells were incubated for 5 h with the solvent (control), TPA (5 ng/mL), 4S-C2 (10 µM), 8S-E3 (10 µM), 10S-E2 (1 µM), or 13S-G2 (1 µM). Luciferase activity was determined as described in the Materials and Methods section. (B) IL1-α and IL6 mRNA expression in K562 and Granta cells. […] The mean ± SD was calculated for three individual samples/condition (n = 3). […]
Lentiviral stocks were generated using the lentiviral expression vector NF-kB. […] The infection efficiency exceeded 90% (tracked by GFP fluorescence).
Cells (10^4 cells/well in a 24-well plate), stably expressing Firefly Luciferase under the NF-kB promoter, were treated for 5 h with TPA (12-O-tetradecanoylphorbol-13-acetate, Boston, MA, USA, 10 ng/mL), 4S-C2 (10 µM), 8S-E3 (10 µM), 10S-E2 (1 µM), 13S-G2 (1 µM), or the vehicle. Luciferase activity was measured as described using a commercial Luciferase Assay (“Promega”, Madison, WI, USA) and Luminometer TD 20/20 (“Turner Design Instruments”, San Jose, CA, USA). […]

CCCCCCCCCCCCCC(=O)O[C@@H]1[C@@H](C)[C@@]2(O)[C@@H](C=C(CO)C[C@]3(O)C(=O)C(C)=C[C@@H]23)[C@@H]2C(C)(C)[C@]12OC(C)=O [TPA, 12-O-tetradecanoylphorbol-13-acetate]
NF-kB activation: 5-9 fold
